Reference: patent publication US20170143701A1, “CARBOHYDRATE METABOLISM-AMELIORATING AGENT” (SUNTORY HOLDINGS LIMITED, priority 2014, published 2017)

Tested on: NCI-H716 cells
Assay: In vitro GLP-1 secretion-accelerating action: amount of active GLP-1 secreted (ELISA)
Assay type: cell-based
Conditions: 1 hour; for Significant difference (p < 0.05) vs control group, amount of active GLP-1 secreted: 10 mM, Student's t-test; for Amount of active GLP-1 secreted (relative value to control group as 100), average value: cyclic dipeptide 10 mM with 10 μM Sitagliptin phosphate, group with no cyclic dipeptide = 100
Procedure: Among the cyclic dipeptides, 92 highly water-soluble cyclic dipeptides were used in the following experiment. In each well of a Poly-L-Lysine 96-well plate, NCI-H716 cells suspended in 100 μL of a DMEM (with 10% FBS, 2 mM glutamine, and 1% antibiotics added in advance) were seeded at 0.5×10^5 cells/well, and cultured in a CO2 incubator (manufactured by ESPEC CORP.) for 48 hours. After washing with PBS(+), 100 μL of a PBS(+) solution with each cyclic dipeptide at a final concentration of 10 mM and 10 μM of Sitagliptin phosphate added therein was added to the cells. After 1 hour, the resultant solution was recovered, and the amount of active GLP-1 in the solution was measured by using the ELISA kit. In the analysis, the amount of active GLP-1 for a group with no cyclic dipeptide added was defined as 100, and relative values thereto were used.

## NCCCC[C@@H]1NC(=O)[C@H](CCC(N)=O)NC1=O [compound 102, Cyclo(Gln-Lys)]
Table 3, Experiment 3
  Significant difference (p < 0.05) vs control group, amount of active GLP-1 secreted: No
  Amount of active GLP-1 secreted (relative value to control group as 100), average value: 112

## O=C(O)C[C@@H]1NC(=O)CNC1=O [compound 32, Cyclo(Asp-Gly)]
Table 5, Experiment 5
  Significant difference (p < 0.05) vs control group, amount of active GLP-1 secreted: Yes
  Amount of active GLP-1 secreted (relative value to control group as 100), average value: 12

## CC(C)[C@@H]1NC(=O)[C@@H]2CCCN2C1=O [compound 10, Cyclo(Val-Pro)]
Table 1, Experiment 1
  Significant difference (p < 0.05) vs control group, amount of active GLP-1 secreted: No
  Amount of active GLP-1 secreted (relative value to control group as 100), average value: 95

## NC(=O)C[C@@H]1NC(=O)[C@H](Cc2cnc[nH]2)NC1=O [compound 111, cyclo-asparaginyl-histidine]
Table 3, Experiment 3
  Significant difference (p < 0.05) vs control group, amount of active GLP-1 secreted: Yes
  Amount of active GLP-1 secreted (relative value to control group as 100), average value: 341

## C[C@H](O)[C@@H]1NC(=O)[C@H](CC(N)=O)NC1=O [compound 166, Cyclo(Asn-Thr)]
Table 3, Experiment 3
  Significant difference (p < 0.05) vs control group, amount of active GLP-1 secreted: No
  Amount of active GLP-1 secreted (relative value to control group as 100), average value: 149

## CC1NC(=O)CNC1=O (stereo not shown) [compound 121, Cyclo(Gly-Ala)]
Table 3, Experiment 3
  Significant difference (p < 0.05) vs control group, amount of active GLP-1 secreted: No
  Amount of active GLP-1 secreted (relative value to control group as 100), average value: 153

## NC(=O)CC[C@@H]1NC(=O)CNC1=O [compound 24, Cyclo(Gln-Gly)]
Table 5, Experiment 5
  Significant difference (p < 0.05) vs control group, amount of active GLP-1 secreted: No
  Amount of active GLP-1 secreted (relative value to control group as 100), average value: 89

## O=C1N[C@@H](CO)C(=O)N[C@H]1CO [compound 1, Cyclo(Ser-Ser)]
Table 1, Experiment 1
  Significant difference (p < 0.05) vs control group, amount of active GLP-1 secreted: No
  Amount of active GLP-1 secreted (relative value to control group as 100), average value: 124

## C[C@H]1NC(=O)[C@@H]2CCCN2C1=O [compound 5, Cyclo(D-Ala-Pro)]
Table 1, Experiment 1
  Significant difference (p < 0.05) vs control group, amount of active GLP-1 secreted: No
  Amount of active GLP-1 secreted (relative value to control group as 100), average value: 113

## O=C(O)CCC1NC(=O)C2CCCN2C1=O (stereo not shown) [compound 45, Cyclo(Glu-Pro)]
Table 1, Experiment 1
  Significant difference (p < 0.05) vs control group, amount of active GLP-1 secreted: No
  Amount of active GLP-1 secreted (relative value to control group as 100), average value: 145

## O=C1NC(Cc2c[nH]c3ccccc23)C(=O)NC1CO (stereo not shown) [compound 78, Cyclo(Trp-Ser)]
Table 2, Experiment 2
  Significant difference (p < 0.05) vs control group, amount of active GLP-1 secreted: No
  Amount of active GLP-1 secreted (relative value to control group as 100), average value: 119

## C[C@@H]1NC(=O)[C@H](CC(=O)O)NC1=O [compound 153, Cyclo(Asp-Ala)]
Table 3, Experiment 3
  Significant difference (p < 0.05) vs control group, amount of active GLP-1 secreted: No
  Amount of active GLP-1 secreted (relative value to control group as 100), average value: 94

## NC(=O)CCC1NC(=O)C(Cc2ccccc2)NC1=O (stereo not shown) [compound 65, cyclo-glutaminyl-phenylalanine]
Table 2, Experiment 2
  Significant difference (p < 0.05) vs control group, amount of active GLP-1 secreted: Yes
  Amount of active GLP-1 secreted (relative value to control group as 100), average value: 227

## NCCCC[C@@H]1NC(=O)[C@@H]2CCCN2C1=O [compound 58, Cyclo(Lys-Pro)]
Table 2, Experiment 2
  Significant difference (p < 0.05) vs control group, amount of active GLP-1 secreted: No
  Amount of active GLP-1 secreted (relative value to control group as 100), average value: 91

## O=C1[C@@H]2CCCN2C(=O)[C@@H]2CCCN12 [compound 6, Cyclo(Pro-Pro)]
Table 1, Experiment 1
  Significant difference (p < 0.05) vs control group, amount of active GLP-1 secreted: No
  Amount of active GLP-1 secreted (relative value to control group as 100), average value: 87

## NCCCC[C@@H]1NC(=O)[C@H](Cc2c[nH]c3ccccc23)NC1=O [compound 59, cyclo-tryptophanyl-lysine]
Table 2, Experiment 2
  Significant difference (p < 0.05) vs control group, amount of active GLP-1 secreted: Yes
  Amount of active GLP-1 secreted (relative value to control group as 100), average value: 239

## CC(C)CC1NC(=O)C(CCCCN)NC1=O (stereo not shown) [compound 68, Cyclo(Leu-Lys)]
Table 2, Experiment 2
  Significant difference (p < 0.05) vs control group, amount of active GLP-1 secreted: No
  Amount of active GLP-1 secreted (relative value to control group as 100), average value: 208

## C[C@@H]1NC(=O)[C@H](CCC(=O)O)NC1=O [compound 113, Cyclo(Glu-Ala)]
Table 3, Experiment 3
  Significant difference (p < 0.05) vs control group, amount of active GLP-1 secreted: No
  Amount of active GLP-1 secreted (relative value to control group as 100), average value: 157

## C[C@@H]1NC(=O)[C@H](CCC(N)=O)NC1=O [compound 23, Cyclo(Ala-Gln)]
Table 5, Experiment 5
  Significant difference (p < 0.05) vs control group, amount of active GLP-1 secreted: No
  Amount of active GLP-1 secreted (relative value to control group as 100), average value: 99

## O=C1CNC(=O)[C@H](Cc2cnc[nH]2)N1 [compound 27, Cyclo(Gly-His)]
Table 5, Experiment 5
  Significant difference (p < 0.05) vs control group, amount of active GLP-1 secreted: No
  Amount of active GLP-1 secreted (relative value to control group as 100), average value: 82
